Experimental findings from patent US20200113852A1, “METHODS OF PATIENT SELECTION AND TREATING TRXR- OR PRDX-OVEREXPRESSED CANCERS” (TRIACT THERAPEUTICS, INC., priority 2017, published 2020) are described below.

Series [1] concerns the target T1, purified rat liver TrxR (Rattus norvegicus, UniProt O89049).
T1 construct: Wild type TrxR purified from rat liver was from Sigma-Aldrich Chemicals; purchased Sigma-Aldrich Chemicals; host or cells: rat liver (tissue-purified)
Put plainly: In vitro TrxR activity (DTNB reduction assay). The format is biochemical. The note with it: 100 μM Iniparib, 200 μM NADPH, up to 120 min.

The test system of series [2] is HCT116 cells. The series is described as follows: ROS production and video-microscopy (H2DCF). The format is cell-based, human. The note with it: HCT116 loaded with H2DCF, 100 μM. On the procedure:
HCT116 cells pretreated or not for 20h with 1 mM BSO were loaded with 5 μM 2′,7′ dichloroflurescein diacetate (H2DCF). […] H2DCF fluorescence was excited with a LED light source (490 nm) and emitted light was collected at 520-550 nm. For video, H2DCF-loaded cells were washed with HBSS and kept for measurement in 2 μM H2DCF in HBSS.
For quantification the MetaMorph® software was used. ROIs were traced on representative cells and integrated fluorescence intensities were estimated. Values correspond to the average intensities of the ROIs and are expressed as the ratio F/FO, where F is the averaged intensity recorded at a given time and FO corresponds to an averaged intensity recorded on images captured before adding the compounds.

Series [3] relates to TrxR in MDA-MB-453 cells. The series is described as follows: Endogenous TrxR activity in cell lysates (DTNB reduction assay). The format is cell-based, human. The note with it: MDA-MB-453 cells without GSH depletion.
The target of series [4] is T2, TrxR1 (Homo sapiens, UniProt Q16881).
T2 sequence (Q16881 1-499 isoform Q16881-5): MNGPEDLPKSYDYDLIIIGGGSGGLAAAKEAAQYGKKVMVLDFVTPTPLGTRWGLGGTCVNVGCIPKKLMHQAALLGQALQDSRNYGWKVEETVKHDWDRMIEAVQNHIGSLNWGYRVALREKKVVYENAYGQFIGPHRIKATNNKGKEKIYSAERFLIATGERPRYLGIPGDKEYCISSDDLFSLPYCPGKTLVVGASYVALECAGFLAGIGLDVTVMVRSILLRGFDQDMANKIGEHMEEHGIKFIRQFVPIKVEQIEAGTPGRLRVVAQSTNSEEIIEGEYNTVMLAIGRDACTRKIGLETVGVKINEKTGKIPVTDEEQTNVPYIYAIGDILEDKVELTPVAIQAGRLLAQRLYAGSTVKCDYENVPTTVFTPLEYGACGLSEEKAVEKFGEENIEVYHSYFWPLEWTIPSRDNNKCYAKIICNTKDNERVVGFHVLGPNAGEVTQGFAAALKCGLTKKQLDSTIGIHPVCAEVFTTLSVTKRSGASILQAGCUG
Put plainly: Mass spectrometry of immunoprecipitated TrxR1 modified by Iniparib in HCT116 cells. The class given is cell-based. Also noted: TrxR1 and TrxR2 were immunoprecipitated from octylglucoside cell extracts (12 mg proteins); endogenous in cells; host or cells: HCT116 (BSO-pretreated). Particulars: for TrxR1 modified on Sec residue: 100 μM, GSH-depleted HCT116. On the procedure: After separation by SDS-PAGE under reducing conditions and PageBlue® protein staining (Thermo scientific), bands of interest were excised, reduced with DTT, alkylated with iodoacetamide and in-gel digested with trypsin (Promega), according to the method of Shevchenko et al. (24). Peptides were extracted with 50 mM ammonium bicarbonate and 50% acetonitrile in 0.2% formic acid and analyzed by Nano LC-MS/MS after partial evaporation in a speed-vac concentrator. LC-MS/MS experiments were performed on an NanoAcquity UPLC (Waters) coupled to a hybrid LTQ Orbitrap Velos mass spectrometer (Thermo Fisher Scientific) equipped with a nanoelectrospray source. Tryptic digests were loaded onto a nanoAcquity UPLC Trap column (Symmetry C18, 5 μm, 180 μm×20 mm, Waters) and washed with 0.2% FA at 20 μl/min for 5 min. Peptides were then eluted on a C18 reverse-phase nanoAcquity column (BEH130 C18, 1.7 μm, 75 μm×250 mm, Waters) with a linear gradient of 7-30% solvent B (H2O/CH3CN/HCOOH, 10:90:0.2, by vol.) for 85 min, 30-90% solvent B for 10 min, and 90% solvent B for 5 min, at a flow rate of 250 nL/min. The mass spectrometer was operated in the data-dependent mode to automatically switch between MS and MS/MS acquisition. Survey full scan MS spectra (m/z 300-1,600) were acquired in the Orbitrap with a resolution of 60,000 at m/z 400. The AGC was set to 1×10^6 with a maximum injection time of 100 ms. The most intense ions (up to 20) were then isolated for fragmentation in the LTQ linear ion trap with normalized collision energy of 28% at the default activation q of 0.25 with an AGC of 5×10^3 and a maximum injection time of 200 ms. The dynamic exclusion time window was set to 80 s. LC-MS/MS data, acquired using the Xcalibur software (Thermo-Fisher Scientific), were processed using a homemade Visual Basic program software developed using XRawfile libraries (distributed by Thermo-Fisher Scientific) to generate a MS/MS peak list (MGF file) which will be used for database searching. This MGF file contained the exact parent mass and the retention time (RT) associated with each MS/MS spectrum. The exact parent mass is the 12C isotope ion mass of the most intense isotopic pattern detected on the high resolution Orbitrap MS parallel scan and included in the MS/MS selection window. The RT is issued from the LTQ-MS/MS scan. Database searches were done using our internal MASCOT server (version 2.1, matrix Science) using the SwissProt human database. […] The precursor mass tolerance was set to 5 ppm and the fragment ion tolerance was set to 0.5 Da. The number of missed cleavage sites for trypsin was set to 3. Mascot result files (“.dat” files) were imported into Scaffold software. Scaffold (version 3.4.5, Proteome software Inc., Portland, Oreg.) was used to validate MS/MS based peptide and protein identifications. Queries were also used for XTandem parallel Database Search. The compiled results of both database searches were exported.

Series [5] in a line: Phase I clinical trial GBM, pharmacokinetics. The class given is in vivo, human. Particulars: human, geometric mean±SD, plasma, read-out: Cmax. The text has this:
No cytochrome P450-inducing anticonvulsants. However, Gliadel was permitted.
Dosing is IV 2×/week continuous.

Where two headings read alike, the source gives them in different places.

T1 sequence (O89049 whole entry): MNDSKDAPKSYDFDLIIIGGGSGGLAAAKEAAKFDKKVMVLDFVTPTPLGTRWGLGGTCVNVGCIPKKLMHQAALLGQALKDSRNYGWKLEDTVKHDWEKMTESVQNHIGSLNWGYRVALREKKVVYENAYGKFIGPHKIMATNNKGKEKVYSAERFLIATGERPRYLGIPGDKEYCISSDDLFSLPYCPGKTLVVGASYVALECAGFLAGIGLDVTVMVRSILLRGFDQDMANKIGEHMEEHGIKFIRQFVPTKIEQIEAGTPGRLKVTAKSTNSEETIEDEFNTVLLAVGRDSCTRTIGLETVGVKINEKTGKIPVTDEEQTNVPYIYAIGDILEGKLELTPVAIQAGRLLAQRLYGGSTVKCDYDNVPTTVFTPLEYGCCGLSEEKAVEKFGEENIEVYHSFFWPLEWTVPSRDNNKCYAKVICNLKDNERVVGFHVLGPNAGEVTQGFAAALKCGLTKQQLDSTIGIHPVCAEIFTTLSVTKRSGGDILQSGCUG

For `NC(=O)c1ccc(I)c([N+](=O)[O-])c1` [Iniparib, 4-iodo-3-nitrobenzamide], the TrxR reductase activity entry in series [1] is on record as “time-dependent inhibition of its reductase activity”; in series [3], “reductase activity inhibition”. Besides, in series [2], the ROS production result is reported as “induced an increase in ROS production”. Besides, the “TrxR1 modified on both adjacent Cys and Sec residues” value is listed as 0.8% in series [4] (1 h) and 4.7% in series [4] (4 h). The “TrxR1 modified on Sec residue” value in series [4] (1 h) amounted to 50%; in series [4] (4 h), 67%. Also, the “5 other TrxR1 peptides modified on Cys residues, altogether” value in series [4] (4 h) is recorded as “less than 7 % of the total protein”. The Cmax in series [5] (5.1 mg/kg IV 2×/week) came out at 642 ± 315 ng/mL; in series [5] (6.1 mg/kg IV 2×/week) it was 928 ± 397 ng/mL; in series [5] (6.8 mg/kg IV 2×/week), 1020 ng/mL; in series [5] (8.0 mg/kg IV 2×/week) it was 3690 ng/mL; in series [5] (8.6 mg/kg IV 2×/week), 1520 ng/mL; in series [5] (9.5 mg/kg IV 2×/week), 2140 ng/mL.

As usually defined, the Cmax is the peak of the concentration-time curve.
